Values quoted from earlier work, collected in patent publication US6423302B1, “Use of octocrylene for solubilizing 2,4-bis{[4-(2-ethyl-hexyloxy)-2-hydroxy]-phenyl}-6-(4-methoxyphenyl)-1,3,5-triazine in cosmetic or dermatological light protection compositions” (Beiersdorf AG, priority 1999, dated 2002).

Settings: prior-art statement

maximum amount of this filter that known solvents can dissolve (known solvents for this UV filter (lipids)): ≤ 10 % by weight
solubility in lipids (stated as main disadvantage): poor solubility in lipids
SMILES: CCCCC(CC)COc1ccc(-c2nc(-c3ccc(OC)cc3)nc(-c3ccc(OCC(CC)CCCC)cc3O)n2)c(O)c1 (centres unmarked) [2,4-bis-{[4-(2-ethylhexyloxy)-2-hydroxy]phenyl}-6-(4-methoxyphenyl)-1,3,5-triazine]
